Source: PubChem BioAssay (NCI)
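How tested: cells in 96-well plates exposed to compound for 48 hours at five concentrations. Definition used: TGI = concentration required for complete inhibition of growth.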

Columns and labels:
Experiment in all cases: inhibition of tumour cell growth, NCI panel, 48 h
RXF 393 renal = system: RXF 393 renal
SK-MEL-2 melanoma = system: SK-MEL-2 melanoma
SK-OV-3 ovarian = system: SK-OV-3 ovarian
M14 melanoma = system: M14 melanoma
CCRF-CEM leukemia = system: CCRF-CEM leukemia
SF-268 CNS = system: SF-268 CNS
NCI-H460 lung = system: NCI-H460 lung
KM12 colon = system: KM12 colon
UO-31 renal = system: UO-31 renal
786-0 renal = system: 786-0 renal
OVCAR-5 ovarian = system: OVCAR-5 ovarian
IGROV1 ovarian = system: IGROV1 ovarian

| SMILES | TGI (RXF 393 renal) | TGI (SK-MEL-2 melanoma) | TGI (SK-OV-3 ovarian) | TGI (M14 melanoma) | TGI (CCRF-CEM leukemia) | TGI (SF-268 CNS) | TGI (NCI-H460 lung) | TGI (KM12 colon) | TGI (UO-31 renal) | TGI (786-0 renal) | TGI (OVCAR-5 ovarian) | TGI (IGROV1 ovarian) |
| --- | --- | --- | --- | --- | --- | --- | --- | --- | --- | --- | --- | --- |
| O=C(/C=C/c1ccc(O)c(O)c1)NCCc1ccc(-c2ccccc2)cc1 | > 100 µM | > 100 µM | > 100 µM | > 100 µM | > 100 µM | > 100 µM | > 100 µM | > 100 µM | > 100 µM | > 100 µM | > 100 µM | – |
| CC(=O)OCC(OC(C)=O)C(OC(C)=O)C(OC(C)=O)C(/C=N\Nc1nc2ccccc2c(=O)[nH]1)=N/Nc1nc2ccccc2c(=O)[nH]1 (stereo not given) | > 100 µM | > 100 µM | > 100 µM | > 100 µM | > 100 µM | > 100 µM | > 100 µM | > 100 µM | > 100 µM | > 100 µM | > 100 µM | – |
| COc1ccc(C[C@H](N)C(=O)N2C[C@@H](CO)C[C@@H](n3cnc4c(N(C)C)ncnc43)C2)cc1 | – | > 100 µM | > 100 µM | > 100 µM | > 100 µM | > 100 µM | > 100 µM | > 100 µM | > 100 µM | > 100 µM | > 100 µM | > 100 µM |
| CC1=CC(C)(C)Nc2ccc(CSc3ccccc3)cc21 | 38.3 µM | 52.2 µM | 90.1 µM | 65.2 µM | – | > 100 µM | 67.4 µM | 63.5 µM | 50.8 µM | 72.1 µM | 40.4 µM | > 100 µM |
| O=[N+]([O-])c1cccc2nc3ccccc3c(NCCCN3CCCCC3)c12 | 0.0246 µM | 0.0296 µM | 0.1 µM | 0.0232 µM | – | 0.199 µM | < 0.0134 µM | 0.112 µM | – | 0.0492 µM | 0.0669 µM | 0.0758 µM |
| BrCC(Br)(c1ccccc1)c1ccccc1-c1cc(-c2ccccc2)cc(-c2ccccc2)n1 (stereo not given) | 5.92 µM | 5.47 µM | – | 21.6 µM | > 53.3 µM | 8.5 µM | 11.9 µM | 12.6 µM | 26.8 µM | 13.8 µM | 8.35 µM | 19.4 µM |
| C[N+](C)([O-])Cc1cc(-c2ccccc2)ccc1O | > 100 µM | > 100 µM | – | > 100 µM | – | > 100 µM | > 100 µM | > 100 µM | > 100 µM | > 100 µM | > 100 µM | > 100 µM |
| O=[As](O)(O)c1ccc2nc3cc([As](=O)(O)O)ccc3nc2c1 | > 100 µM | > 100 µM | – | > 100 µM | – | > 100 µM | > 100 µM | > 100 µM | > 100 µM | > 100 µM | > 100 µM | > 100 µM |
| COC(=O)c1c(C(=O)OC)c2c3ccccc3n(C)c2c2c1c1ccccc1n2C | – | > 100 µM | > 100 µM | > 100 µM | > 100 µM | – | > 100 µM | > 100 µM | > 100 µM | > 100 µM | > 100 µM | > 100 µM |
